From patent US20210212959A1, “GIP ELEVATION INHIBITOR” (KAO CORPORATION, priority 2018, published 2021) come the findings set out here.

The test system of the assay is blood GIP level. In words: GIP elevation inhibitory activity of D-mannitol (single dietary test). The format is in vivo, mice (C57BL/6J). The method, then: Powdery feeds were prepared by using D-mannitol (manufactured by Kao Corp.) in accordance with the compositions listed in the following table and used as test samples. [table] Powdery feeds (Table 1) were weighed so as to have the same calories in each group and freely fed for 30 minutes to mice (C57BL/6J, CLEA Japan, Inc, male, 10-weeks old, n=10) fasted for 18 hours or more. During this free feeding, 200 mg of the feed was given to the high fat diet (HF) group; whereas, 216 mg of the feed to the D-mannitol group. Note that the calorie of D-mannitol was calculated as 0. Before feeding, and 30, 60 and 120 minutes after feeding a powdery-feed test sample, the mice were anesthetized with isoflurane, blood was sampled from the orbit (heparinized hematocrit micro blood collection tube, manufactured by VITREX) and the blood GIP level was measured. The amount of GIP was measured in accordance with ELISA method (Rat/Mouse GIP (total) ELISA (Millipore)). Each value was shown by mean±standard deviation. Statistically significant difference between the groups was obtained by applying Student's t-test to the HF group (*: p<0.05).

Regarding `OC[C@@H](O)[C@@H](O)[C@H](O)[C@H](O)CO` [D-mannitol], where the note is “conclusion of single dietary test in mice”, the “inhibitory activity against GIP elevation” value is reported as “has an inhibitory activity against GIP elevation”. The “blood GIP concentration value at 30 minutes after intake of the sample” value (mice C57BL/6J male, fasted 18 hours or more, 216 mg high fat powdery feed containing D-mannitol, compared to HF group, Student's t-test p<0.05, FIG. 1A) is given as “significantly low”. Further, the “area under the curve of GIP concentration up to 120 minutes after intake of the sample” value (mice C57BL/6J male, fasted 18 hours or more, 216 mg high fat powdery feed containing D-mannitol, compared to control (HF) group, p<0.05, FIG. 1B) is reported as “significantly low”.
